Test results from patent US9763911B2, “Prostacyclin compositions for regulation of fracture repair and bone formation” (MAYO FOUNDATION FOR MEDICAL EDUCATION AND RESEARCH, priority 2013, dated 2017).

Legend:
[1] = system: β-catenin in KO OC clone 8 cells; test: Activated β-catenin protein in Sost KO clonal osteocytes treated with Wnt inhibitor (immunoblot); format: cell-based, mouse; details: KO OC 8 cells, treatment for 48 hours, vs vehicle, P<0.05 (FIG. 7A)
Procedure: (§1) FIGS. 7A and 7B show inhibition of Wnt secretion with C-59 reduces intra-cellular activated β-catenin concentrations and 6-keto PGF1α concentrations. […] KO OC clone 8 cells were treated with a Wnt inhibitor, C-59 (2-(4-(2-methylpyridin-4-yl)phenyl)-N-(4(pyridine-3-yl)phenyl)acetamide) to assess the functional importance of β-catenin signaling in sclerostin-mediated increases in PGI2 synthesis.
Wells in a 6-well collagen treated plate were seeded with 0.2×10^6 sclerostin knock-out osteocytes (Clone KO8). After 48 hours, normal growth medium was removed, and cells were rinsed with PBS. Serum-free media was then added (α-MEM, 1% P/S) to the osteocytes as was well as either 100 nM of the small molecule Wnt inhibitor, C59 (2-(4-(2-methylpyridin-4-yl)phenyl)-N-(4-(pyridine-3-yl)phenyl) acetamide), or a vehicle control. After a 48 hour incubation, media was harvested from both vehicle and experimental wells and assayed for 6-keto prostaglandin F1α.
Cell lysates from 6- or 12-well plates were prepared by scraping cells in lysis buffer (0.1% SDS, 150 mM NaCl, 2 mM sodium vanadate, 0.5% sodium deoxycholate, 1% NP-40 50 mM Tris pH 8.2, 1 mM EDTA with one mini-complete protease inhibitor cocktail EDTA-free tab (Roche Diagnostics, Indianapolis, Ind.)) per 7 ml lysis solution or by direct addition of 1×SDS sample containing 5 mM EDTA and protease inhibitor as above. […]

[2] = system: 6-keto PGF1α (PGI2 synthesis) in KO OC clone 8 cells; test: 6-keto PGF1α in culture medium of treated Sost KO clonal osteocytes (EIA); format: cell-based, mouse; details: 100 nM C59, 48 h, vehicle 274.964±6.006 pg/mL, P=0.012 (FIG. 7B)
Procedure: as §1
All prostaglandin metabolite measurements were performed by enzyme immunoassay (EIA) using kits from Cayman Chemical (Ann Arbor, Mich.). 6-Keto prostaglandin Flα (Catalog Number 515211), prostaglandin E2 (Catalog Number 514010), Prostaglandin E Metabolite (Catalog Number 514531), prostaglandin F2α (Catalog Number 516011), prostaglandin D2 (Catalog Number 512031), and thromboxane B2 (Catalog Number 519031) were all performed according to kit instructions. Culture medium was diluted 1:2 in supplied buffer for each metabolite measurement, solubilized bone proteins were diluted 1:100 in supplied buffer for each metabolite measurement, and urine was diluted 1:500 in supplied buffer for each metabolite measurement.
Wells in a 6-well collagen treated plate were seeded with 0.2×10^6 sclerostin knock-out osteocytes (Clone KO8). After 48 hours, normal growth medium was removed, and cells were rinsed with PBS. […]

With `Cc1cc(-c2ccc(CC(=O)Nc3ccc(-c4cccnc4)cc3)cc2)ccn1` [C59, 2-(4-(2-methylpyridin-4-yl)phenyl)-N-(4(pyridine-3-yl)phenyl)acetamide] the “β-catenin protein concentration in cells” value [1] was “statistically significant decrease” and the “6-keto PGF1α in culture medium” value [2] was 536.409 ± 60.690 pg/mL.
